The test system of test [1] is LPS-induced TNFα in monocytes. In words: Monocytes assay: LPS-triggered TNFα (ELISA). The conditions noted are these: LPS 200 ng/mL, supernatant after 4 h. It counts as cell-based, human. A digest of the protocol:
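Supernatant TNFα was quantified by luminol-based sandwich ELISA after 4 h stimulation with LPS (200 ng/mL final). The cells were CD14-bead-purified monocytes from human PBMCs, 100 000 per well, exposed to 3-fold compound dilutions for 1 h at 37° C beforehand, with DMSO at 0.2%. Results are reported as percent inhibition.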

In test [2] the test system is LPS triggered IL-10 secretion in monocytes. Kind of test: Monocytes assay: LPS-triggered IL-10 (ELISA). It counts as cell-based, human. The conditions noted are these: LPS 200 ng/mL, supernatant after 4 h, maximal fold change vs LPS only. A digest of the protocol: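 Human CD14+ monocytes, magnetically isolated from buffy-coat PBMCs, were seeded at 100 000 cells/well and preincubated with compound for 1 h at 37° C (0.2% DMSO). LPS was then added at a final 200 ng/mL for 4 h. Supernatant IL-10 was quantified by chemiluminescent sandwich ELISA against a standard curve.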
Background: ELISA stands for enzyme-linked immunosorbent assay.

The EC50 is the concentration at which the effect is half-maximal. A higher EC50 goes with lower potency in that assay.

For `COc1cc(-c2cnc3cc(OCC4(F)CN(C(=O)OC(C)(C)C)C4)ccn23)cc2c1C(=O)N(CC(F)(F)F)CC2` [compound 248, tert-butyl 3-fluoro-3-[[3-[8-methoxy-1-oxo-2-(2,2,2-trifluoroethyl)-3,4-dihydroisoquinolin-6-yl]imidazo[1,2-a]pyridin-7-yl]oxymethyl]azetidine-1-carboxylate], the concentration for a half-maximal effect (EC50) in test [1] (Homo sapiens, Monocyte, 4 h) was in the range of 100 to 1000 nM. In addition, the “IL-10 FCmax median” value in test [2] was “+++ (>4.5)”.
The matching figures for `COc1cc(-c2cnc3cc(OCCOCCN4CCCCC4)ccn23)cc(OC(F)F)c1C(=O)NC1CC1` [compound 305]: 0.1 to 100 nM and “+++ (>4.5)”.
The matching figures for `COc1cc(-c2cnc3cc(OCCN4CCOC[C@@H]4C)ccn23)cc(OC(F)F)c1C(=O)NC1CC1` [compound 233, N-cyclopropyl-2-(difluoromethoxy)-6-methoxy-4-[7-[2-[(3S)-3-methylmorpholin-4-yl]ethoxy]imidazo[1,2-a]pyridin-3-yl]benzamide]: 100 to 1000 nM and “+++ (>4.5)”.
`COc1cc(-c2cnc3cc(OCCN4CCOC[C@@H]4C)ccn23)cc2c1C(=O)N(CC(F)(F)F)CC2` [Cpd 257, 8-methoxy-6-[7-[2-[(3S)-3-methylmorpholin-4-yl]ethoxy]imidazo[1,2-a]pyridin-3-yl]-2-(2,2,2-trifluoroethyl)-3,4-dihydroisoquinolin-1-one]: the EC50 in test [1] (Homo sapiens, Monocyte, 4 h) is 100 to 1000 nM. Moreover, the “IL-10 FCmax median” value in test [2] is “+++ (>4.5)”.
As to `COc1cc(-c2cnc3cc(OCC(O)CN4CCOCC4)ccn23)cc(OC(F)F)c1C(=O)NC1CC1` (single isomer, unassigned) [Cpd 386, N-cyclopropyl-2-(difluoromethoxy)-4-[7-(2-hydroxy-3-morpholino-propoxy)imidazo[1,2-a]pyridin-3-yl]-6-methoxy-benzamide], in test [1], the 50% effective concentration (EC50) was in the range of 100 to 1000 nM. The “IL-10 FCmax median” value in test [2] is “+++ (>4.5)”.
As for `COc1cc(-c2cnc3cc(OCCCN4CC(O)C4)ccn23)cc(OC(F)F)c1C(=O)NC1CC1` [Cpd 286, N-cyclopropyl-2-(difluoromethoxy)-4-[7-[3-(3-hydroxyazetidin-1-yl)propoxy]imidazo[1,2-a]pyridin-3-yl]-6-methoxy-benzamide], the EC50 in test [1] (Homo sapiens, Monocyte, 4 h) was 100 to 1000 nM. Further, in test [2], the “IL-10 FCmax median” value is “++ (>1.5-4.5)”.
The matching figures for `COc1cc(-c2cnc3cc(OCCCN4CCC5(CC4)CN(C)C(=O)O5)ccn23)cc(OC(F)F)c1C(=O)NC1CC1` [compound 325, N-cyclopropyl-2-(difluoromethoxy)-6-methoxy-4-[7-[3-(3-methyl-2-oxo-1-oxa-3,8-diazaspiro[4.5]decan-8-yl)propoxy]imidazo[1,2-a]pyridin-3-yl]benzamide]: 0.1 to 100 nM and “++ (>1.5-4.5)”.
The matching figures for `COc1cc(-c2cnc3cc(OCCN4CCOC[C@H]4C)ccn23)cc(OC(F)F)c1C(=O)NC1CC1` [compound 234, N-cyclopropyl-2-(difluoromethoxy)-6-methoxy-4-[7-[2-[(3R)-3-methylmorpholin-4-yl]ethoxy]imidazo[1,2-a]pyridin-3-yl]benzamide]: 100 to 1000 nM and “+++ (>4.5)”.
The matching figures for `COc1cc(-c2cnc3cc(OCCCN4CCCC(O)C4)ccn23)cc(OC(F)F)c1C(=O)NC1CC1` (centres unmarked) [compound 328, N-cyclopropyl-2-(difluoromethoxy)-4-[7-[3-(3-hydroxy-1-piperidyl)propoxy]imidazo [1,2-a]pyridin-3-yl]-6-methoxy-benzamide]: 100 to 1000 nM and “+++ (>4.5)”.
`COc1cc(-c2cnc3cc(OC(C)(C)CO)ccn23)cc(OC(F)F)c1C(=O)NC1CC1` [Cpd 209, N-cyclopropyl-2-(difluoromethoxy)-4-[7-(2-hydroxy-1,1-dimethyl-ethoxy)imidazo[1,2-a]pyridin-3-yl]-6-methoxy-benzamide] came in with an EC50 in test [1] (Homo sapiens, Monocyte, 4 h) of 100 to 1000 nM. The “IL-10 FCmax median” value in test [2] is “+ (≤1.5)”.

The values are drawn from patent US12264156B2, “Compounds and pharmaceutical compositions thereof for the treatment of diseases” (GALAPAGOS NV, priority 2018, dated 2025).
